The values that follow come from patent US20260184693A1, “INHIBITORS OF SOLUTE CARRIER FAMILY 6A MEMBER 19 (SLC6A19) AND METHODS OF USE THEREOF” (Maze Therapeutics, Inc., priority 2022, published 2026).

Each structure is given as a SMILES string. pIC50: −log10 of the molar value. A value given as a limit tells only on which side of the number the result lay.

The assay deals with T1, human SLC6A19 (Homo sapiens, UniProt Q695T7).
T1 construct: expressed in transfected cells
T1 sequence (Q695T7 1-634): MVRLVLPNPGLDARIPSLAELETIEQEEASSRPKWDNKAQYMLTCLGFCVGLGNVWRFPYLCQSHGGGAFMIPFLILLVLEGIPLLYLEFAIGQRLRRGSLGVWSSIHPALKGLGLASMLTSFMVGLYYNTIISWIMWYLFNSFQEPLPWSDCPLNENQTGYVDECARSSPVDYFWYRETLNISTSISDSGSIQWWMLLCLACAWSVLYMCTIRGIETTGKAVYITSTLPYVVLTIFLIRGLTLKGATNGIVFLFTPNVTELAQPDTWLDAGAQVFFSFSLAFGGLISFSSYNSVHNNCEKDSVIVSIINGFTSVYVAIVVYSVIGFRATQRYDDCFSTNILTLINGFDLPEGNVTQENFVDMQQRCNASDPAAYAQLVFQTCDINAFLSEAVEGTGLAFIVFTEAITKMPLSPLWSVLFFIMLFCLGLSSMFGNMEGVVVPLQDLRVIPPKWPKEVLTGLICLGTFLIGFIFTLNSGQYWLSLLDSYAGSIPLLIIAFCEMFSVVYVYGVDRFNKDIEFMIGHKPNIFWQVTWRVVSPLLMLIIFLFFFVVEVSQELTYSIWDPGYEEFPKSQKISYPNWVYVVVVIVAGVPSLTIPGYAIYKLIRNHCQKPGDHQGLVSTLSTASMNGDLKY
T1 sequence (Q9HBJ8 15-222 partner): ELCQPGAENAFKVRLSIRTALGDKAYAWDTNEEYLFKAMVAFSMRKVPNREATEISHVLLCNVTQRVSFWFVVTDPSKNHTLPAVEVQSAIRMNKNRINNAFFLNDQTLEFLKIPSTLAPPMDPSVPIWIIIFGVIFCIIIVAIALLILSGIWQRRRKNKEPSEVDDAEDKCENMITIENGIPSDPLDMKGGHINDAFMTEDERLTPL
Nature of the assay: Example B2: 13C6,15N-isoleucine uptake, RapidFire mass spectrometry, in CHO cells with doxycycline-inducible expression of human SLC6A19 and TMEM27. It counts as cell-based. The note with it: read-out: SLC6A19_RapidFire Uptake Assay IC50. In a few lines:
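Labelled isoleucine (13C6,15N; 2 mM added) was given 20 min at 37 °C, following a 20-min compound pre-treatment (10-point 2-fold series, duplicate). Cells were doxycycline-induced CHO co-expressing human SLC6A19 and TMEM27. Intracellular label was quantified by RapidFire-MS peak areas against a 13C-leucine standard.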

`CN(C)C(=O)NCC(=O)N1CCC[C@@H](N(C)C(=O)NCc2cc3cc(Cl)ccc3[nH]2)C1` [Compound 101, (R)-3-((5-chloro-1H-indol-2-yl)methyl)-1-(1-((dimethylcarbamoyl)glycyl)piperidin-3-yl)-1-methylurea]: the pIC50 is 5.53.
As for `Cc1cnc2ncc(C(=O)N3CCC[C@@H](N(C)C(=O)NCc4cc5cc(Cl)ccc5[nH]4)C3)n2c1` [Compound 102, (R)-3-((5-chloro-1H-indol-2-yl)methyl)-1-methyl-1-(1-(6-methylimidazo[1,2-a]pyrimidine-3-carbonyl)piperidin-3-yl)urea], the figure is 5.74; as for `CN(C(=O)NCc1cc2cc(Cl)ccc2[nH]1)[C@@H]1CCCN(C(=O)C2CN(S(C)(=O)=O)C2)C1` [Compound 103, (R)-3-((5-chloro-1H-indol-2-yl)methyl)-1-methyl-1-(1-(1-(methylsulfonyl)azetidine-3-carbonyl)piperidin-3-yl)urea], 5.65; as for `CCC(NC(C)=O)C(=O)N1CCC[C@@H](N(C)C(=O)NCc2cc3cc(Cl)ccc3[nH]2)C1` (stereo partly drawn) [Compound 104, N-(1-((R)-3-(3-((5-chloro-1H-indol-2-yl)methyl)-1-methylureido)piperidin-1-yl)-1-oxobutan-2-yl)acetamide], 5.17.
As for `CC(C(=O)N1CCC[C@@H](N(C)C(=O)NCc2cc3cc(Cl)ccc3[nH]2)C1)C1(O)CCC1` (stereo partly drawn) [Compound 105, 3-((5-chloro-1H-indol-2-yl)methyl)-1-((3R)-1-(2-(1-hydroxycyclobutyl)propanoyl)piperidin-3-yl)-1-methylurea], the figure is < 4.57; as for `CN(C(=O)NCc1cc2cc(Cl)ccc2[nH]1)[C@@H]1CCCN(C(=O)CC2CCCCO2)C1` (stereo partly drawn) [Compound 106, 3-((5-chloro-1H-indol-2-yl)methyl)-1-methyl-1-((3R)-1-(2-(tetrahydro-2H-pyran-2-yl)acetyl)piperidin-3-yl)urea], 5.75.
As to `COc1ccc(CC(=O)N2CCC[C@@H](N(C)C(=O)NCc3cc4cc(Cl)ccc4[nH]3)C2)cc1F` [Compound 107, (R)-3-((5-chloro-1H-indol-2-yl)methyl)-1-(1-(2-(3-fluoro-4-methoxyphenyl)acetyl)piperidin-3-yl)-1-methylurea], the pIC50 was 5.90.
As for `CN(C(=O)NCc1cc2cc(Cl)ccc2[nH]1)[C@@H]1CCCN(C(=O)[C@H]2CC[C@H](O)CC2)C1` [Compound 108], the figure is 5.64; as for `CCNC(=O)NC(C)C(=O)N1CCC[C@@H](N(C)C(=O)NCc2cc3cc(Cl)ccc3[nH]2)C1` (stereo partly drawn) [Compound 109, 3-((5-chloro-1H-indol-2-yl)methyl)-1-((3R)-1-((ethylcarbamoyl)alanyl)piperidin-3-yl)-1-methylurea], 5.74; as for `CN(C(=O)NCc1cc2cc(Cl)ccc2[nH]1)[C@@H]1CCCN(C(=O)C(O)CO)C1` (stereo partly drawn) [Compound 110, 3-((5-chloro-1H-indol-2-yl)methyl)-1-((3R)-1-(2,3-dihydroxypropanoyl)piperidin-3-yl)-1-methylurea], 5.07.
With `CN(C(=O)NCc1cc2cc(Cl)ccc2[nH]1)[C@@H]1CCCN(C(=O)C2(CO)CCC2)C1` [Compound 122, (R)-3-((5-chloro-1H-indol-2-yl)methyl)-1-(1-(1-(hydroxymethyl)cyclobutane-1-carbonyl)piperidin-3-yl)-1-methylurea] the figure was 5.07; with `CN(C(=O)NCc1cc2cc(Cl)ccc2[nH]1)[C@@H]1CCCN(C(=O)C23CC(C2)C3)C1` [Compound 123, (R)-1-(1-(bicyclo[1.1.1]pentane-1-carbonyl)piperidin-3-yl)-3-((5-chloro-1H-indol-2-yl)methyl)-1-methylurea], 6.37.
As for `CN(C(=O)NCc1cc2cc(Cl)ccc2[nH]1)[C@@H]1CCCN(C(=O)C2CC(F)C2)C1` (stereo partly drawn) [Compound 124, (R)-3-((5-chloro-1H-indol-2-yl)methyl)-1-(1-(3-fluorocyclobutane-1-carbonyl)piperidin-3-yl)-1-methylurea], the figure is 6.59; as for `CN(C(=O)NCc1cc2cc(Cl)ccc2[nH]1)[C@@H]1CCCN(C(=O)C2CCC2F)C1` (stereo partly drawn) [Compound 125, 3-((5-chloro-1H-indol-2-yl)methyl)-1-((3R)-1-(2-fluorocyclobutane-1-carbonyl)piperidin-3-yl)-1-methylurea], 6.59.
With `CN(C(=O)NCc1cc2cc(Cl)ccc2[nH]1)[C@@H]1CCCN(C(=O)C2(C)COC2)C1` [Compound 126, (R)-3-((5-chloro-1H-indol-2-yl)methyl)-1-methyl-1-(1-(3-methyloxetane-3-carbonyl)piperidin-3-yl)urea], the negative logarithm of the IC50 (pIC50) was 5.84.
As for `CN(C(=O)NCc1cc2cc(Cl)ccc2[nH]1)[C@@H]1CCCN(C(=O)C2(F)CCC2)C1` [Compound 127, (R)-3-((5-chloro-1H-indol-2-yl)methyl)-1-(1-(1-fluorocyclobutane-1-carbonyl)piperidin-3-yl)-1-methylurea], the figure is 6.17; as for `CN(C(=O)NCc1cc2cc(Cl)ccc2[nH]1)[C@@H]1CCCN(C(=O)C2(O)CCC2)C1` [Compound 128, (R)-3-((5-chloro-1H-indol-2-yl)methyl)-1-(1-(1-hydroxycyclobutane-1-carbonyl)piperidin-3-yl)-1-methylurea], 5.74; as for `CN1CC(C(=O)N2CCC[C@@H](N(C)C(=O)NCc3cc4cc(Cl)ccc4[nH]3)C2)C1` [Compound 129, (R)-3-((5-chloro-1H-indol-2-yl)methyl)-1-methyl-1-(1-(1-methylazetidine-3-carbonyl)piperidin-3-yl)urea], < 4.50.
With `CN(C(=O)NCc1cc2cc(Cl)ccc2[nH]1)[C@@H]1CCCN(C(=O)C2CNC2)C1` [Compound 130, (R)-1-(1-(azetidine-3-carbonyl)piperidin-3-yl)-3-((5-chloro-1H-indol-2-yl)methyl)-1-methylurea] the figure was 4.92; with `CN(C(=O)NCc1cc2cc(Cl)ccc2[nH]1)[C@@H]1CCCN(C(=O)[C@@H]2CC(=O)CN2)C1` [Compound 131, 3-((5-chloro-1H-indol-2-yl)methyl)-1-methyl-1-((R)-1-((S)-4-oxopyrrolidine-2-carbonyl)piperidin-3-yl)urea], < 4.34.
As for `COCC(N)C(=O)N1CCC[C@@H](N(C)C(=O)NCc2cc3cc(Cl)ccc3[nH]2)C1` (stereo partly drawn) [Compound 132, 3-((5-chloro-1H-indol-2-yl)methyl)-1-methyl-1-((3R)-1-(O-methylseryl)piperidin-3-yl)urea], the figure is < 4.51; as for `CN(C(=O)NCc1cc2cc(Cl)ccc2[nH]1)[C@@H]1CCCN(C(=O)C2COCCN2)C1` (stereo partly drawn) [Compound 133, 3-((5-chloro-1H-indol-2-yl)methyl)-1-methyl-1-((3R)-1-(morpholine-3-carbonyl)piperidin-3-yl)urea], < 5.12; as for `CC(=O)N1CCC[C@@H](N(C)C(=O)NCc2cc3ccc(OCc4cncs4)cc3[nH]2)C1` [Compound 136, (R)-1-(1-acetylpiperidin-3-yl)-1-methyl-3-((6-(thiazol-5-ylmethoxy)-1H-indol-2-yl)methyl)urea], 5.40.
Turning to `CC(=O)N1CCC[C@@H](N(C)C(=O)NCc2cc3cc(Cl)c(OCc4ccon4)cc3[nH]2)C1` [Compound 138, (R)-1-(1-acetylpiperidin-3-yl)-3-((5-chloro-6-(isoxazol-3-ylmethoxy)-1H-indol-2-yl)methyl)-1-methylurea], the negative logarithm of the IC50 (pIC50) was 6.19.
With `CCN(C(=O)NCc1cc2ccc(OCc3ccon3)cc2[nH]1)[C@@H]1CCCN(C(C)=O)C1` [Compound 139, (R)-1-(1-acetylpiperidin-3-yl)-1-ethyl-3-((6-(isoxazol-3-ylmethoxy)-1H-indol-2-yl)methyl)urea] the figure was 6.29; with `CC(=O)N1CCC[C@@H](N(C)C(=O)NCc2cc3cc(Cl)c(OCc4cncs4)cc3[nH]2)C1` [Compound 140, (R)-1-(1-acetylpiperidin-3-yl)-3-((5-chloro-6-(thiazol-5-ylmethoxy)-1H-indol-2-yl)methyl)-1-methylurea], 5.91.
With `CC(=O)N1CCC[C@@H](N(C)C(=O)NCc2cc3ccc(OCc4ccon4)cc3[nH]2)C1` [Compound 141, (R)-1-(1-acetylpiperidin-3-yl)-3-((6-(isoxazol-3-ylmethoxy)-1H-indol-2-yl)methyl)-1-methylurea] the figure was 6.17.
Regarding `Cc1cc(COc2ccc3cc(CNC(=O)N(C)[C@@H]4CCCN(c5cccnn5)C4)[nH]c3c2)no1` [Compound 142, (R)-1-methyl-3-((6-((5-methylisoxazol-3-yl)methoxy)-1H-indol-2-yl)methyl)-1-(1-(pyridazin-3-yl)piperidin-3-yl)urea], the pIC50 was 5.88.

For orientation: pIC50 means the negative decadic logarithm of the IC50, by convention in mol/L.
